Measured values as given in PubChem BioAssay (NCI).
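Cells were grown in 96-well plates and exposed to each compound for 48 hours at five concentrations; endpoints were interpolated linearly between bracketing concentrations, or set to the highest concentration if not reached. GI50 = concentration required for 50% inhibition of growth. At the TGI there is no net growth.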

Columns and labels:
Assay in all cases: NCI anticancer screen, dose series, 48 h
[1] = system: OVCAR-5 ovarian
[2] = system: ACHN renal
[3] = system: UACC-257 melanoma
[4] = system: HL-60(TB) leukemia
[5] = system: RPMI-8226 leukemia
[6] = system: BT-549 breast
[7] = system: CCRF-CEM leukemia
[8] = system: DU-145 prostate
[9] = system: SK-MEL-2 melanoma
[10] = system: HOP-62 NSCLC
[11] = system: MCF7 breast
[12] = system: NCI-H226 lung
[13] = system: OVCAR-8 ovarian
[14] = system: HCC-2998 colon
[15] = system: HT29 colon
[16] = system: U251 CNS
[17] = system: OVCAR-4 ovarian
[18] = system: SNB-75 CNS
[19] = system: MALME-3M melanoma
[20] = system: RXF 393 renal
[21] = system: SF-295 CNS
[22] = system: HCT-15 colon
[23] = system: M14 melanoma
[24] = system: T-47D breast
[25] = system: SW-620 colon
[26] = system: 786-0 renal
[27] = system: SN12C renal
[28] = system: OVCAR-3 ovarian
[29] = system: NCI-H23 lung
[30] = system: PC-3 prostate
[31] = system: SNB-19 CNS
[32] = system: LOX IMVI melanoma
[33] = system: HCT-116 colon
[34] = system: A498 renal
[35] = system: KM12 colon
[36] = system: SK-MEL-5 melanoma
[37] = system: NCI-H460 lung
[38] = system: SK-MEL-28 melanoma
[39] = system: SF-539 CNS
[40] = system: SK-OV-3 ovarian
[41] = system: SR leukemia
[42] = system: MDA-MB-231 breast
[43] = system: IGROV1 ovarian
[44] = system: K-562 leukemia
[45] = system: NCI/ADR-RES ovarian
[46] = system: SF-268 CNS
[47] = system: TK-10 renal
[48] = system: A549 NSCLC
[49] = system: UACC-62 melanoma
[50] = system: NCI-H522 lung
[51] = system: HOP-92 NSCLC
[52] = system: EKVX NSCLC
[53] = system: UO-31 renal
[54] = system: CAKI-1 renal
[55] = system: MOLT-4 leukemia
[56] = system: HS 578T breast

CCCCc1n(Cc2ccc3ccccc3c2)c2ccccc2[n+]1Cc1ccc2ccccc2c1
GI50 [1]: 0.521 µM | TGI [1]: 1.9 µM | GI50 [2]: 1.4 µM | TGI [2]: 2.82 µM | GI50 [3]: 0.925 µM | TGI [3]: 2.23 µM

N=C(N)c1ccc(-c2ccc(-c3ccc(Cl)c(Cl)c3)s2)cc1
GI50 [4]: 1.7 µM | TGI [4]: 4.23 µM | GI50 [5]: 1.89 µM | TGI [5]: 4.37 µM | GI50 [6]: 6.39 µM | TGI [6]: 50 µM | GI50 [7]: 1.54 µM | TGI [7]: 4.26 µM | GI50 [8]: 1.75 µM | TGI [8]: 3.13 µM | GI50 [9]: 2.51 µM | TGI [9]: 5.8 µM

COc1cc(OC)c2sc(-c3ccc(-n4cncc4-c4ccc(OC)c(OC)c4)cc3)nc2c1
GI50 [10]: 35.5 µM | TGI [10]: > 100 µM | GI50 [11]: 5.37 µM | TGI [11]: > 100 µM | GI50 [12]: 6.44 µM | TGI [12]: > 100 µM | GI50 [13]: 21.2 µM | TGI [13]: > 100 µM | GI50 [1]: > 100 µM | TGI [1]: > 100 µM | GI50 [14]: > 100 µM | TGI [14]: > 100 µM | GI50 [15]: 7.13 µM | TGI [15]: > 100 µM | GI50 [16]: 9.19 µM | TGI [16]: > 100 µM | GI50 [17]: 4.21 µM | TGI [17]: > 100 µM | GI50 [18]: 7.21 µM | TGI [18]: 46 µM | GI50 [4]: 3.09 µM | TGI [4]: > 100 µM | GI50 [5]: > 100 µM | TGI [5]: > 100 µM | GI50 [19]: 59.9 µM | TGI [19]: > 100 µM | GI50 [20]: 3.55 µM | TGI [20]: > 100 µM | GI50 [21]: 7 µM | TGI [21]: > 100 µM | GI50 [22]: > 100 µM | TGI [22]: > 100 µM | GI50 [23]: > 100 µM | TGI [23]: > 100 µM | GI50 [24]: 3.78 µM | TGI [24]: > 100 µM | GI50 [25]: > 100 µM | TGI [25]: > 100 µM | GI50 [2]: > 100 µM | TGI [2]: > 100 µM | GI50 [26]: > 100 µM | TGI [26]: > 100 µM | GI50 [27]: > 100 µM | TGI [27]: > 100 µM | GI50 [6]: 9.12 µM | TGI [6]: > 100 µM | GI50 [7]: > 100 µM | TGI [7]: > 100 µM | GI50 [28]: 3.85 µM | TGI [28]: 35.9 µM | GI50 [29]: > 100 µM | TGI [29]: > 100 µM | GI50 [30]: 3.66 µM | TGI [30]: > 100 µM | GI50 [31]: > 100 µM | TGI [31]: > 100 µM | GI50 [8]: 27.9 µM | TGI [8]: > 100 µM | GI50 [32]: > 100 µM | TGI [32]: > 100 µM | GI50 [33]: 5.48 µM | TGI [33]: > 100 µM | GI50 [34]: 2.15 µM | TGI [34]: > 100 µM | GI50 [35]: 6.8 µM | TGI [35]: > 100 µM | GI50 [36]: 3.61 µM | TGI [36]: > 100 µM | GI50 [9]: 41.4 µM | TGI [9]: > 100 µM | GI50 [37]: 6.06 µM | TGI [37]: > 100 µM | GI50 [38]: > 100 µM | TGI [38]: > 100 µM | GI50 [39]: > 100 µM | TGI [39]: > 100 µM | GI50 [40]: > 100 µM | TGI [40]: > 100 µM | GI50 [41]: 3.03 µM | TGI [41]: > 100 µM | GI50 [42]: 28.4 µM | TGI [42]: > 100 µM | GI50 [3]: > 100 µM | TGI [3]: > 100 µM | GI50 [43]: 56.1 µM | TGI [43]: > 100 µM | GI50 [44]: 5.88 µM | TGI [44]: > 100 µM | GI50 [45]: > 100 µM | TGI [45]: > 100 µM | GI50 [46]: 9.96 µM | TGI [46]: > 100 µM | GI50 [47]: 31.7 µM | TGI [47]: > 100 µM | GI50 [48]: 41.8 µM | TGI [48]: > 100 µM | GI50 [49]: 8.14 µM | TGI [49]: > 100 µM | GI50 [50]: 5.27 µM | TGI [50]: 76.9 µM

Cc1cc(NCc2cc(Nc3ccnc4cc(Cl)ccc34)ccc2F)nc(N2CCOCC2)n1
GI50 [11]: 2.12 µM | TGI [11]: 6.15 µM | GI50 [12]: 1.89 µM | TGI [12]: 5.61 µM | GI50 [13]: 3.07 µM | TGI [13]: 13.6 µM | GI50 [51]: 1.34 µM | TGI [51]: 3.13 µM | GI50 [1]: 2.45 µM | TGI [1]: 6.97 µM | GI50 [14]: 2.27 µM | TGI [14]: 5.44 µM | GI50 [15]: 2.21 µM | TGI [15]: 5.68 µM | GI50 [16]: 1.95 µM | TGI [16]: 4.05 µM | GI50 [18]: 1.32 µM | TGI [18]: 2.79 µM | GI50 [4]: 1.77 µM | TGI [4]: 3.82 µM | GI50 [5]: 1.81 µM | TGI [5]: 5.58 µM | GI50 [52]: 3.18 µM | TGI [52]: 23.9 µM | GI50 [53]: 1.3 µM | TGI [53]: 2.71 µM | GI50 [24]: 1.79 µM | TGI [24]: 4.26 µM | GI50 [25]: 1.81 µM | TGI [25]: 4.7 µM | GI50 [26]: 1.66 µM | TGI [26]: 3.12 µM | GI50 [54]: 1.52 µM | TGI [54]: 3.21 µM | GI50 [27]: 1.84 µM | TGI [27]: 4.3 µM | GI50 [7]: 2.53 µM | TGI [7]: 34.6 µM | GI50 [55]: 2.95 µM | TGI [55]: > 100 µM | GI50 [56]: 2.07 µM | TGI [56]: 6.97 µM | GI50 [28]: 1.53 µM | TGI [28]: 2.95 µM | GI50 [29]: 2.43 µM | TGI [29]: 7.28 µM | GI50 [30]: 2.28 µM | TGI [30]: 7.65 µM | GI50 [31]: 3.79 µM | TGI [31]: 54.4 µM | GI50 [8]: 3.2 µM | TGI [8]: 12.5 µM | GI50 [34]: 1.46 µM | TGI [34]: 6.89 µM | GI50 [35]: 2.01 µM | TGI [35]: 4.59 µM | GI50 [9]: 1.99 µM | TGI [9]: 4.7 µM | GI50 [37]: 2 µM | TGI [37]: 4.77 µM | GI50 [40]: 1.7 µM | TGI [40]: 3.36 µM | GI50 [42]: 1.83 µM | TGI [42]: 4.51 µM | GI50 [43]: 1.93 µM | TGI [43]: 5.11 µM | GI50 [44]: 1.73 µM | TGI [44]: 6.18 µM | GI50 [45]: 2.34 µM | TGI [45]: 6.97 µM | GI50 [46]: 3.08 µM | TGI [46]: 18 µM | GI50 [47]: 1.96 µM | TGI [47]: 3.92 µM | GI50 [48]: 3.89 µM | TGI [48]: 21 µM | GI50 [50]: 1.84 µM | TGI [50]: 4.39 µM
